One series has as its system patient with dystonia. The experiment in a line: Case reports: skin application in patients with dystonia (Examples 1, 2). It is filed as in vivo, human. The note with it: Example 1 patient, right arm dystonia; salve applied. An excerpt: Over the years, I observed progression of dystonia of a patient. […] An extended forearm wrist rotation was used to identify and measure progression of dystonia. A normal human can rotate the wrist of the fully extended arm more than 270 degrees. The patient was falling to 200 degrees with increasing pain in the opposing forearm muscles.
Last spring, I applied a salve of K-CLA, potassium-conjugated linoleic acid, to potentially kill the microbial residents in the skin causing the dystonia.
This person presented with right arm dystonia after complaints of hand incoordination worsening with vibration. Muscle tenderness and loss of range of motion of extended-wrist rotation defined the clinical diagnosis confirmed by pattern EMG (Nicolet) within a university neurology clinic. The Potassium safflowerate of Example 11 as a salve. […] The improved capacity including reduction in hand tremor has continued with application of Example 10 and 11 application every 2-7 days.

The test system of series [1] is patient with Parkinsonism. Nature of the series: Case reports: skin application in patients with Parkinsonism/dystonia (Examples 3-5). It is filed as in vivo, human. An excerpt: This person presented with left hemiparetic neglect, reduced finger fine motor capacity, flat affect, tremor, and reduced extended arm wrist rotation and loss of shoulder extension and abduction. The diagnosis of Parkinsonism on clinical grounds was confirmed at a major hospital chain neurology clinic. […] Their extended wrist rotation range measured 60 degrees initially; by six months this approached 200 degrees. At 3 months they could extend their shoulder quickly to 180 degrees (initially slowly to 60 degrees.) This functionality continues to be maintained over 15 months of intermittent applications of salve and ingestion of isomerized safflowerate.
This person presented while on Sinemet prescribed by a major hospital chain neurology clinic for Parkinsonism. […] They also had reduced head rotation with painful limitation.
This individual stopped his Sinemet, continued every other day application of the Example 12 and oral intake of isomerized safflowerate. Improvement has maintained for 4 months, with rare intermittent right-hand tremors after a day of heavy farming.
This person sustained the onset of right arm dystonic Parkinsonism several months after a traumatic brain injury. […] Personal life issues prevented further applications.
The patient was instructed to rotate, extend and open their hand while they were actively having right hand-arm Parkinsonism tremors. They were unable to either rotate their wrist or open their hand voluntarily initially as shown on the left picture so they attempt to force it open with their left hand. The patient was treated with application of the salve over their right arm, subocciput, and upper torso bilaterally.

The test system of series [2] is gram positive and negative bacteria as well as fungi including Malassezia, Aspergillus, and Candida. The experiment in a line: Anti-microbial capacity of K-CLA. It is filed as cell-based.
In another series the test system is patient with Alzheimer's. Nature of the series: Case reports: skin application in Alzheimer's syndrome (Examples 7, 8). It is filed as in vivo, human. The note with it: patient with early Alzheimer's disease and cortical atrophy.
Series [3] concerns malassezia species, candida, aspergillus and many gram positive and negative bacteria. The note with it: Changaris and Sullivan 2019; cited from earlier work.
For series [4], the system named is patients having dystonia with traumatic brain injury. Nature of the series: Video capture of wrist rotation before and after application, five patients with Dystonia/Parkinsonism (Example 9). It is filed as in vivo, human. The note with it: for increase in external wrist rotation / increase in internal wrist rotation: FIG. 1. An excerpt:
Five patients aged 42-67 using recorded videos of hand movement Dystonia/Parkinsonism before and after application of Example 12 for 5-10 days. Four had bilateral symptoms. Using video capture to measure the rotation of their wrists before and after application of the […]. […] This improvement has been sustained with intermittent continuing application of the salve to the skin of the forearm and shoulder for 3 months.
Subsequently, I have recorded videos of hand movement in patients with Dystonia/Parkinsonism before and after similar treatment. Several had bilateral symptoms. Video capture was used to measure the rotation of their wrists before and after application of the K-CLA 0.1-12%. […] This improvement has been sustained with intermittent continuing application of the salve to the skin of the forearm and shoulder. […] Application of a broad spectrum antimicrobial with profound antifungal capacity can reverse symptoms of Dystonia/Parkinsonism.

Series [5] has as its system bacteria and fungi (cross-kingdom). Conditions: hospital disinfection; Changaris and Carenbauer 2022; cited from earlier work.

Turning to “potassium-conjugated linoleic acid [K-CLA]”, the dystonic symptoms result in the series with patient with dystonia is reported as “Most of the dystonic symptoms were resolved”. Also, the skin reactions entry in series [1] (hemiparetic Parkinsonism patient and early Alzheimer's patient, skin application) is on record as “intense skin reactions”. Also, the “acute hemiparetic Parkinsonism” value in series [1] (patient who refused conventional medications, salve) was “improving acute hemiparetic Parkinsonism with both strength and agility”. For the same compound, the anti-microbial capacity entry in series [2] is “extraordinary anti-microbial capacity”. Further, the “mental acuity and emotionality” value in the series on patient with Alzheimer's was “clinical improvement in mental acuity and emotionality”. Besides, the biocidal capacity entry in series [3] is recorded as “biocidal capacity against at least four malassezia species”. Further, the extended wrist rotation result in series [4] (applied as salve, within weeks) is “measurable improvement”. Also, in series [4] (first patient), the “increase in external wrist rotation” value was roughly 20% and the “increase in internal wrist rotation” value was roughly 30%. In series [4] (one patient, an architect), the “capacity to draw, patient's own impression” value is recorded as “capacity to draw has improved”. In series [4] (second patient), the “increase in external wrist rotation” value is roughly 10% and the “increase in internal wrist rotation” value was roughly 20%. Also, in series [5], the “cross-kingdom anti-bacterial and anti-fungal efficacy” value was “sufficient to satisfy the United States Environmental Protection Agency requirements for hospital disinfection”.
In the case of `C#CCN(C)[C@H](C)Cc1ccccc1` [selegiline, reference compound], in series [1] (Example 5, person, as tolerated), the “right arm dystonic Parkinsonism” value is on record as “without significant improvement”.
